Data set [1] in a line: Oxidation of Sincalide methionine residues by trace metals with and without EDTA. It counts as physicochemical. An excerpt: Excipient impurities and/or stopper extractables can introduce trace metals into pharmaceutical formulations. Embodiments of the Sincalide formulations disclosed herein contain stabilizerichelator to inhibit the oxidation of the two methionine residues present in Sincalide (Met 3 and Met 6). Preferred chelators include edetic acid (EDTA) and derivatives thereof, including salts. […] In particular, copper and manganese, in the absence of EDTA, have the greatest oxidative effect on the methionine residues of Sincalide.

Data set [2] deals with gallbladder. The note with it: typical, patient pretreated before hepatobiliary imaging; cited from earlier work.
Data set [3] in a line: Stability of Sincalide in 35 mM phosphate buffer over pH 3.0-9.1 (recovery by RP-HPLC). It counts as physicochemical. As to the method: Experiments were conducted to determine the effect of pH on the chemical stability of Sincalide. Chemical instability, or degradation, may be caused by, for example, oxidation, reduction, de-amidation, hydrolysis, imide formation, racemization, isomerization, and/or β-elimination. To examine the effect of pH on Sincalide in phosphate buffer solution, solutions of Sincalide (˜1.7, μg/mL) were prepared in 35 mM phosphate buffer and pH-adjusted with either dilute HCl or NaOH for final pH values ranging from 3.0-9.1. Using reverse-phase HPLC (RP-HPLC) with gradient elution and UV detection at 215 nm, Sincalide stability in solution was assessed by measuring the recovery of Sincalide at 0, 6, and 24 hours after pH adjustment.
A 24-hour study on the stability of Sincalide in phosphate buffer over the pH range of 3.0-9.1 was conducted. By measure of the percentage recovery, Sincalide was stable in 35 mM phosphate buffer solution at pH values ranging from 5.0-9.1 over a 24-hour period. At pH values <5.0, Sincalide degradation was evident even at the initial time point.

Where only a bound is given, the exact number is not on record here.

`CSCC[C@H](NC(=O)[C@H](Cc1ccc(OS(=O)(=O)O)cc1)NC(=O)[C@@H](N)CC(=O)O)C(=O)NCC(=O)N[C@@H](Cc1c[nH]c2ccccc12)C(=O)N[C@@H](CCSC)C(=O)N[C@@H](CC(=O)O)C(=O)N[C@@H](Cc1ccccc1)C(N)=O` [Sincalide, 1-De(5-oxo-L-glutamine-5-L-proline)-2-de-L-me-thioninecaerulein]: the “formation of Sincalide Met 3 and Met 6 mono sulfoxides” value in data set [1] (presence of EDTA) was “inhibitory effect”. Moreover, in data set [1] (presence of certain metals, absence of EDTA, copper and manganese greatest oxidative effect), the “amounts of the degradants Sincalide Met 3 and Met 6 mono sulfoxides” value was “increase”. The “time to gallbladder contraction after injection” value in data set [2] was not above 15 min. The “pH values at which Sincalide was stable, by percentage recovery” value in data set [3] (35 mM phosphate buffer solution, over a 24-hour period, RP-HPLC UV 215 nm) was 5.0-9.1. In data set [3] (35 mM phosphate buffer, even at the initial time point), the “pH values at which Sincalide degradation was evident” value was less than 5.0.

These data come from patent US20180360917A1, “SINCALIDE FORMULATIONS AND METHODS OF USE” (Apicore LLC, priority 2017, published 2018).
